Measured values as given in ChEMBL document CHEMBL1799946, “Synthesis and biological evaluation of desmethylveramiline, a micromolar Hedgehog inhibitor” (Bioorg Med Chem Lett, 2011).

How the values were obtained:
[1] = molecular target: Sonic hedgehog protein (Mus musculus) (UniProt Q62226); assay: Inhibition of SHH pathway in mouse Shh Light2 cells at 3 uM after 40 hrs by Gli-dependent luciferase reporter gene assay; type: functional, cell-based; conditions: Shh Light II
[2] = molecular target: Sonic hedgehog protein (Mus musculus) (UniProt Q62226); assay: Inhibition of N-terminal SHH activated pathway in mouse C3H10T1/2 cells assessed as SAG-induced cell differentiation at 10 uM by alkaline phosphatase assay; type: cell-based; conditions: C3H 10T1/2
[3] = molecular target: Sonic hedgehog protein (Mus musculus) (UniProt Q62226); assay: Inhibition of N-terminal SHH activated pathway in mouse C3H10T1/2 cells assessed as SAG-induced cell differentiation at 1 uM by alkaline phosphatase assay; type: cell-based; conditions: C3H 10T1/2
[4] = molecular target: Sonic hedgehog protein (Mus musculus) (UniProt Q62226); assay: Inhibition of SHH pathway in mouse Shh Light2 cells at 0.3 uM after 40 hrs by Gli-dependent luciferase reporter gene assay; type: functional, cell-based; conditions: Shh Light II
[5] = molecular target: Sonic hedgehog protein (Mus musculus) (UniProt Q62226); assay: Inhibition of SHH pathway in mouse Shh Light2 cells at 10 uM after 40 hrs by Gli-dependent luciferase reporter gene assay; type: functional, cell-based; conditions: Shh Light II
Sonic hedgehog protein = Sonic hedgehog protein (Mus musculus, UniProt Q62226); assay: Inhibition of SHH pathway in mouse Shh Light2 cells after 40 hrs by Gli-dependent luciferase reporter gene assay; type: functional, cell-based, Shh Light II
Chain of Sonic hedgehog protein (Q62226 25-198 limits assumed): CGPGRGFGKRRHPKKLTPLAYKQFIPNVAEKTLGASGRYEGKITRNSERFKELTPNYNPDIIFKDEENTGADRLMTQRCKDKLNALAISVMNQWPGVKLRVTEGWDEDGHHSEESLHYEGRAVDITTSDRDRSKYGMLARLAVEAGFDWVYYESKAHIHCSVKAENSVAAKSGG

| SMILES | inhibition [1] [%] | inhibition [2] [%] | inhibition [3] [%] | inhibition [4] [%] | inhibition [5] [%] | IC50 (Sonic hedgehog protein) [nM] |
| --- | --- | --- | --- | --- | --- | --- |
| COc1cccc(CN(C(=O)CC(C)(C)C)[C@H]2C[C@@H](C(=O)N3CCNCC3)N(Cc3ccc4c(c3)OCO4)C2)c1 | 97 | 99 | 78 | 89 | 92 | 100 |
| CC1=C2C[C@H]3[C@@H](CC=C4C[C@@H](O)CC[C@@]43C)[C@@H]2CC[C@]12O[C@@H]1C[C@H](C)CN[C@H]1[C@H]2C [CYCLOPAMINE] | 96 | 105 | 71 | 58 | 98 | 300 |
| C[C@H]([C@@H]1CCCCN1)[C@H]1CC[C@H]2[C@@H]3CC=C4C[C@@H](O)CC[C@]4(C)[C@H]3CC[C@]12C [DESMETHYLVERAMILINE] | 47 | 85 | 13 | 5 | 87 | 1100 |
